Earlier results, collected in patent US7829698B2, “Nano-particles comprising cucurbituril derivatives, pharmaceutical composition containing the same, and process for the preparation thereof” (Postech Foundation, priority 2003, dated 2010).
Peptide text beside a SMILES is read from it.

Conditions: host cucurbituril

Row | Structure (SMILES) | Kf (non-covalent coupling constant between cucurbituril and guest molecule)
1 | NCCCCCCN [NH2(CH2)6NH2] | 2.7e+06 M⁻¹
2 | CCCCCN [Me(CH2)4NH2] | 24000 M⁻¹
3 | CC(C)[C@H](N)C(=O)O [L-Val] | 1400 M⁻¹
4 | N[C@@H](Cc1ccccc1)C(=O)O [Phe] | 1400 M⁻¹
5 | CC(C)[C@H](NC(=O)CN)C(=O)O [Gly-val] (H-Gly-Val-OH) | 1500 M⁻¹
6 | N[C@@H](Cc1ccccc1)C(=O)NCC(=O)O [Phe-gly] (H-Phe-Gly-OH) | 1100 M⁻¹
7 | C[C@H](N)C(=O)O [L-Ala] | 1000 M⁻¹
8 | CCC(=O)O [CH3CH2COOH] | 590 M⁻¹
9 | N#CCCN [H2N(CH2)2CN] | 440 M⁻¹
10 | CC(C)C[C@H](N)C(=O)NCC(=O)O [Leu-gly] (H-Leu-Gly-OH) | 370 M⁻¹
11 | NCCC(=O)O [H2N(CH2)2COOH] | 2300 M⁻¹
12 | NCCCCCO [H2N(CH2)5OH] | 690 M⁻¹
